Literature values, collected in patent publication US20160310758A1, “SYSTEMS AND METHODS FOR PHOTOACTIVATING A PHOTOSENSITIZER APPLIED TO AN EYE” (Avedro, Inc., priority 2015, published 2016).

Key:
[1] = non-ionic permeability enhancer in riboflavin formulations
bacteria = details: D2O by itself, without photosensitizer; Skladnev et al. 1996

Q: With “Polyoxyethylene (9) lauryl ether [Polidocanol]” as the molecule, how does the HLB number [1] read?
A: approximately 13.6

Q: Which killing of bacteria (bacteria) does the source give for `[2H]O[2H]` [D2O, deuterated water] here?
A: does not kill bacteria
